Experimental data reported in BindingDB's records for doi:10.1021/acs.jmedchem.9b01317 (Fudan University, 2020).

Test: Inhibition of RIPK3 in human HT-29 cells assessed as reduction in TSZ-induced necroptosis by Cell Titer Glo assay

CC(=O)O[C@@H]1CCC(C)(C)[C@H]2C[C@@H](O)C3=C[C@@H](CCC(=O)[C@@]21C)[C@H](C)C3=O
IC50: 200 nM
